# Assay results published in patent publication US9345703B2, “Kappa opioid receptor effectors and uses thereof” (University of Kansas, priority 2011, dated 2016).
# Biological target: MOR (Homo sapiens, UniProt P35372)
# Assay: High content imaging based β-arrestin translocation assay, MOR agonist (MOR HCS)
# Type: cell-based
# Details: n = 2, read-out: Average Potency MOR HCS
# Chain of MOR (P35372 whole entry): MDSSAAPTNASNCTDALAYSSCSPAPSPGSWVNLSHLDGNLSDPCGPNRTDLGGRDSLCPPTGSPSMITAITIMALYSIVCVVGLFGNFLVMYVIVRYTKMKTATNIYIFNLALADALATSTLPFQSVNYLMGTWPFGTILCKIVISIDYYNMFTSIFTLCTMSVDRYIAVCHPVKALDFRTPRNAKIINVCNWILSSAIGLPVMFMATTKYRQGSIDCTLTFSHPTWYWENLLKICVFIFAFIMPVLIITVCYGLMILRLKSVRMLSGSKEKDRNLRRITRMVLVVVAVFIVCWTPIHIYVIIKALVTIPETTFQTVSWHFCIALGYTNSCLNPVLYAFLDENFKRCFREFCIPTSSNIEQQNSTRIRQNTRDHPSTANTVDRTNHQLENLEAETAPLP
smiles,measurement,value
Clc1ccc(CSc2nnc(-c3ccccn3)n2Cc2ccco2)cc1Cl [Compound 2{8}],EC50,> 32 µM
